Results reported in patent US20120122951A1 (priority 2009, published 2012).

Columns and labels:
Mouse B16 melanoma cell [1] = assay: Quantification of melanin (melanin content ratio, absorbance at 475 nm); type: cell-based; conditions: for effect on reducing melanin content (conclusion): 3.33 ppm up to 2690 ppm
Description: (§1) Mouse B16 melanoma cell was used. The cells were inoculated at 1×10^5 cells/well to a 6-well plate, and cultured with using a commercially available medium (trade name: EAGLE MEM, manufactured by Nissui Pharmaceutical Co., Ltd.) supplemented with 10% fetal bovine serum. The cells were cultured at 37° C., 5% CO2 and under completely saturated water-vapor atmosphere.
(§2) For determining the effect of hydroxyproline on cell growth and melanin content reduction, after culturing the cells for 24 hours, stock solutions of 4-trans-L-hydroxyproline, 4-trans-D-hydroxyproline, 4-cis-L-hydroxyproline or 4-cis-D-hydroxyproline were prepared and added in the same volume to the cells, further cultured for 3 days and used for the experiment. Meanwhile, as a control group, the same volume of water was added.
The medium was removed by suction. After washing three times with the buffer (phosphate buffer solution 50 mM, pH 6.8), the cells were lysed by addition of 1 N NaOH, and the absorbance was measured at 475 nm. By having the obtained value as a relative value of the melanin content, the ratio of melanin content (%) for a group added with the test compound compared to a group not added with the test compound (i.e. only the solvent was added) was calculated. Lower ratio of melanin content means the higher inhibition effect on melanin production.
By using the measured value of melanin content that was obtained according to the measurement method above, percentage ratio of the melanin content was calculated by dividing the melanin content in the cells added with 4-trans-L-hydroxyproline, 4-trans-D-hydroxyproline, 4-cis-L-hydroxyproline, or 4-cis-D-hydroxyproline by the melanin content in the cells for control experiment, and the resulting value was taken as a ratio of melanin content.
(§3) The equal amounts of 4-trans-L-hydroxyproline and 4-cis-D-hydroxyproline were mixed to produce the mixture solution of 4-trans-L-hydroxyproline and 4-cis-D-hydroxyproline, which was then provided for the experiments. Cell culture and quantification and evaluation of number of the cells and melanin were carried out in the same manner as the Examples above.
(§4) By using the mixture solution in which 4-trans-L-hydroxyproline and 4-cis-D-hydroxyproline were mixed at various ratio, test for determining cell growth and melanin content reduction was carried out. Cell culture and quantification and evaluation were carried out in the same manner as the Examples above.

Mouse B16 melanoma cell [2] = assay: Quantification of the number of cells (alamarBlue), cell growth / cell toxicity; type: cell-based
Description: as §1, §2
3 days after the addition of a solution of test compound, the medium was removed by suction. Eagle's-MEM containing the solution of 10% alamarBlue (trade name: BIOSOURCE, manufactured by Biosource International) was added and the reaction was allowed to occur at 37° C. Thirty minutes later, the fluorescence was measured with excitation wavelength of 544 nm and measurement wavelength of 590 nm. By having the obtained number as a relative value of the cell number, the ratio of number of cells (i.e. % number of cells) for a group added with the test compound compared to a group not added with the test compound (i.e. only the solvent was added) was calculated. Higher % number of cells indicates lower cell toxicity. When it is less than 80%, it was determined as “toxic.”
as §3, §4

[3] = tested on: Chinese hamster V79 cells; conditions: cited from earlier work
[4] = FIG. 2, 100 ppm single compound, duplicate

| SMILES | effect on reducing melanin content (conclusion) (Mouse B16 melanoma cell [1]; FIG. 1) | melanin content ratio (Mouse B16 melanoma cell [1]; FIG. 1, 3.33 ppm, 3 days) | melanin content ratio (Mouse B16 melanoma cell [1]; FIG. 1, 11.1 ppm, 3 days) | melanin content ratio (Mouse B16 melanoma cell [1]; FIG. 1, 33.3 ppm, 3 days) | melanin content ratio (Mouse B16 melanoma cell [1]; FIG. 1, 333 ppm, 3 days) | melanin content ratio (Mouse B16 melanoma cell [1]; FIG. 1, 2690 ppm, 3 days) | number of cells when the control was represented as 100% (Mouse B16 melanoma cell [2]; FIG. 1, 3.33 ppm, 3 days) | number of cells when the control was represented as 100% (Mouse B16 melanoma cell [2]; FIG. 1, 11.1 ppm, 3 days) | number of cells when the control was represented as 100% (Mouse B16 melanoma cell [2]; FIG. 1, 33.3 ppm, 3 days) | number of cells when the control was represented as 100% (Mouse B16 melanoma cell [2]; FIG. 1, 333 ppm, 3 days) | number of cells when the control was represented as 100% (Mouse B16 melanoma cell [2]; FIG. 1, 2690 ppm, 3 days) | concentration up to which the number of cells was not significantly different from the control (no effect on survival) (Mouse B16 melanoma cell [2]; FIG. 1, 3 days) | number of cells when the control was represented as 100% (Mouse B16 melanoma cell [2]; FIG. 2, 33.3 ppm, duplicate) | number of cells when the control was represented as 100% (Mouse B16 melanoma cell [2]; FIG. 2, 50 ppm, duplicate) | number of cells when the control was represented as 100% (Mouse B16 melanoma cell [2]; [4]) | number of cells when the control was represented as 100% (Mouse B16 melanoma cell [2]; FIG. 2, 333 ppm, duplicate) | melanin content ratio (Mouse B16 melanoma cell [1]; FIG. 2, 33.3 ppm, duplicate) | melanin content ratio (Mouse B16 melanoma cell [1]; FIG. 2, 50 ppm, duplicate) | melanin content ratio (Mouse B16 melanoma cell [1]; [4]) | melanin content ratio (Mouse B16 melanoma cell [1]; FIG. 2, 333 ppm, duplicate) | other results |
| --- | --- | --- | --- | --- | --- | --- | --- | --- | --- | --- | --- | --- | --- | --- | --- | --- | --- | --- | --- | --- | --- |
| O=C(O)[C@H]1C[C@H](O)CN1 (stereo in doubt) [4-trans-D-hydroxyproline] | no effect on reducing melanin content | 97% | 99% | 99% | 101% | 110% | 98% | 100% | 101% | 105% | 109% |  |  |  |  |  |  |  |  |  |  |
| O=C(O)[C@@H]1C[C@H](O)CN1 (stereo in doubt) [4-cis-L-hydroxyproline] | effect on reducing melanin content in a concentration-dependent manner | 92% | 83% | 30% |  |  | 93% | 92% | 84% |  |  | up to 33.3 ppm | 97% | 93% | 95% | 89% |  |  |  |  |  |
| O=C(O)[C@H]1C[C@@H](O)CN1 (stereo in doubt) [4-cis-D-hydroxyproline] | effect on reducing melanin content in a concentration-dependent manner | 100% | 98% | 96% | 32% |  | 97% | 98% | 101% | 92% |  | ≤ 333 ppm |  |  |  |  | 90% | 85% | 72% | 32% | inhibition of melanin synthesis / melanin content (conclusion) (Mouse B16 melanoma cell [1]; FIG. 2, 4-cis-D starting from 33.3 ppm, mixture with same amount of 4-cis-D): prominently inhibit melanin synthesis in a concentration-dependent manner; melanin content ratio (Mouse B16 melanoma cell [1]; FIG. 3, 33.3 ppm, duplicate): 92%; melanin content ratio (Mouse B16 melanoma cell [1]; FIG. 3, 50 ppm, duplicate): 84%; melanin content ratio (Mouse B16 melanoma cell [1]; FIG. 3, 100 ppm, duplicate): 75%; melanin content ratio (Mouse B16 melanoma cell [1]; FIG. 3, 333 ppm, duplicate): 37%; number of cells when the control was represented as 100% (Mouse B16 melanoma cell [2]; FIG. 3, 33.3 ppm, duplicate): 93%; number of cells when the control was represented as 100% (Mouse B16 melanoma cell [2]; FIG. 3, 50 ppm, duplicate): 92%; number of cells when the control was represented as 100% (Mouse B16 melanoma cell [2]; FIG. 3, 100 ppm, duplicate): 91%; number of cells when the control was represented as 100% (Mouse B16 melanoma cell [2]; FIG. 3, 333 ppm, duplicate): 88% |
| O=C(O)[C@@H]1C[C@@H](O)CN1 (stereo in doubt) [4-trans-L-hydroxyproline] | no effect on reducing melanin content | 103% | 108% | 105% | 104% | 107% | 95% | 103% | 99% | 101% | 94% |  | 95% | 100% | 98% | 102% | 103% | 104% | 108% | 112% | melanin content ratio (Mouse B16 melanoma cell [1]; FIG. 3, 333 ppm, duplicate): 103%; melanin content ratio (Mouse B16 melanoma cell [1]; FIG. 3, 480 ppm, duplicate): 99%; melanin content ratio (Mouse B16 melanoma cell [1]; FIG. 3, 666 ppm, duplicate): 107%; melanin content ratio (Mouse B16 melanoma cell [1]; FIG. 3, 1332 ppm, duplicate): 102%; number of cells when the control was represented as 100% (Mouse B16 melanoma cell [2]; FIG. 3, 333 ppm, duplicate): 100%; number of cells when the control was represented as 100% (Mouse B16 melanoma cell [2]; FIG. 3, 480 ppm, duplicate): 96%; number of cells when the control was represented as 100% (Mouse B16 melanoma cell [2]; FIG. 3, 666 ppm, duplicate): 102%; number of cells when the control was represented as 100% (Mouse B16 melanoma cell [2]; FIG. 3, 1332 ppm, duplicate): 99% |
| Oc1ccc(O)cc1 [Hydroquinone, hydroquinone] |  |  |  |  |  |  |  |  |  |  |  |  |  |  |  |  |  |  |  |  | mutagenic activity [3]: mutagenic activity |
